Measurements taken from patent US20210171503A1, “GLYCOLATE OXIDASE INHIBITORS AND USE THEREOF” (ORFAN BIOTECH INC., priority 2017, published 2021).
Counter-ions that a name gives are not always drawn.

Target: T1, mouse glycolate oxidase (mGO) (Mus musculus, UniProt Q9WU19)
T1 construct: His6 (N); made in house; host or cells: E. coli BL21 (DE3)
T1 sequence (Q9WU19 1-370): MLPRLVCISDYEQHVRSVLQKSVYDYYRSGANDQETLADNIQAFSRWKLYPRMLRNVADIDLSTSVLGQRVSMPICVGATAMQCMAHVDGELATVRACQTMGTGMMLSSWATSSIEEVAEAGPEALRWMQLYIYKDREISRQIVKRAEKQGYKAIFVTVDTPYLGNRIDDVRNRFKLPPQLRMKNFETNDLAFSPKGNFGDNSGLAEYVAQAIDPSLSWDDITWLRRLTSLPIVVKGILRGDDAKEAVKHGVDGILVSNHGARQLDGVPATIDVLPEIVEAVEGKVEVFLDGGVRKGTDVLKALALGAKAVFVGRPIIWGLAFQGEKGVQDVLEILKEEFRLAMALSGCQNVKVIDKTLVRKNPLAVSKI
Test: In vitro inhibition of mouse glycolate oxidase (mGO), HRP-coupled Trinder reaction
Type: biochemical
Conditions: compound tested at 100 μM; 40 mM glycolic acid as substrate; activity calculated at 1 minute
Protocol: Protein expression. BL21 (DE3) E. coli transformed with recombinant pET-15b expression vector containing mouse Hao1 cDNA with an N-terminal His6 tag was grown in LB medium in the presence of 0.1 mg/mL ampicillin. For purification of recombinant mGO expressed in BL21 E. coli, bacteria pellets were thawed and re-suspended in 2 mL lysis buffer (50 mM NaH2PO4, 300 mM NaCl, 10 mM imidazole, 50 μM flavin mononucleotide (FMN), pH 7.5), and then treated for 30 minutes with 1 mM phenylmethylsulfonyl fluoride (PMSF) for protease inhibition, 0.1% Triton X-100 and 0.2 mg/mL lysozyme to break cellular membranes. After sonication, cells were centrifuged and the supernatant containing the total cellular extract (pre-column fraction) was loaded into a Ni-NTA agarose column, and incubated for 30 minutes at 4° C. to allow binding. The column was washed with two bed volumes of lysis buffer with 20 mM imidazole to eliminate unbound proteins (wash fraction). mGO was eluted using the same buffer containing 300 mM imidazole. Fractions containing purified GO were dialyzed against 300 mL of dialysis buffer (50 mM NaH2PO4, 300 mM NaCl, pH 7.5) at 4° C. with agitation overnight, and then kept at 4° C. in darkness. Protein was quantified by the bicinchoninic acid (BCA) assay.
Inhibition assays. Enzymatic activity of mGO was determined in the presence of glycolate as substrate (40 mM glycolic acid) and phosphate buffer (50 mM KPO4, 0.1 mM EDTA, pH 7). The production of glyoxylate was indirectly measured by the quantification of hydrogen peroxide formed during the first oxidation reaction. This hydrogen peroxide reacted with 4.9 mM 4-aminoantipyrine and 0.1 mM sulphonated […] in a coupled horseradish peroxidase (HRP) reaction that yields a quinoneimine dye (FIG. 1) measured at 515 nm (Trinder reaction). Enzymatic activity was calculated at 1 minute after initiation of the Trinder reaction.

Compound	inhibition at 100 µM [%]
COc1ccc(CN(c2ccc(-c3ccc(C#N)cc3)cc2)c2c(C(=O)O)n[nH]c2C)cc1 [Compound 57, 4-((4′-cyano-[1,1′-biphenyl]-4-yl)(4-methoxybenzyl)amino)-5-methyl-1H-pyrazole-3-carboxylic Acid]	30 to 60
Cc1[nH]nc(C(=O)O)c1Nc1ccc(Cc2ccc(OCCOC3CN(C(=O)OC(C)(C)C)C3)cc2)cc1 [Compound 59, 4-((4-(4-(2-((1-(tert-butoxycarbonyl)azetidin-3-yl)oxy)ethoxy)benzyl)phenyl)amino)-5-methyl-1H-pyrazole-3-carboxylic Acid]	< 30
Cc1[nH]nc(C(=O)O)c1Nc1ccc(Cc2ccc(OCCC3CCN(C(=O)OC(C)(C)C)CC3)cc2)cc1 [Compound 61, 4-((4-(4-(2-(1-(tert-butoxycarbonyl)piperidin-4-yl)ethoxy)benzyl)phenyl)amino)-5-methyl-1H-pyrazole-3-carboxylic Acid]	> 60
Cc1[nH]nc(C(=O)O)c1Nc1ccc(Cc2ccc(OCCC3CCNCC3)cc2)cc1 [Compound 62, 5-methyl-4-((4-(4-(2-(piperidin-4-yl)ethoxy)benzyl)phenyl)amino)-1H-pyrazole-3-carboxylic Acid hydrochloride]	< 30
Cc1[nH]nc(C(=O)O)c1Nc1ccc(Cc2ccc(OCCN3CCN(C(=O)OC(C)(C)C)CC3)cc2)cc1 [Compound 63, 4-((4-(4-(2-(4-(tert-butoxycarbonyl)piperazin-1-yl)ethoxy)benzyl)phenyl)amino)-5-methyl-1H-pyrazole-3-carboxylic Acid]	< 30
Cc1[nH]nc(C(=O)O)c1Nc1ccc(Cc2ccc(OCCN3CCNCC3)cc2)cc1 [Compound 64, 5-methyl-4-((4-(4-(2-(piperazin-1-yl)ethoxy)benzyl)phenyl)amino)-1H-pyrazole-3-carboxylic Acid hydrochloride]	< 30
Cc1[nH]nc(C(=O)O)c1Nc1ccc(Cc2ccc(OCCCCN3CCOCC3)cc2)cc1 [Compound 65, 5-methyl-4-((4-(4-(4-morpholinobutoxy)benzyl)phenyl)amino)-1H-pyrazole-3-carboxylic Acid]	< 0
COc1ccc(CN(c2ccc(CCc3ccc(F)cc3)cc2)c2c(C(=O)O)n[nH]c2C)cc1 [Compound 67, 4-((4-(4-Fluorophenethyl)phenyl)(4-methoxybenzyl)amino)-3-methyl-1H-pyrazole-5-carboxylic Acid]	> 60
CC(C)(C)OC(=O)N1CC(OCCOc2ccc(Cc3ccc(Nc4ccnnc4C(=O)O)cc3)cc2)C1 [Compound 68 Na salt, 4-((4-(4-(2-((1-(tert-butoxycarbonyl)azetidin-3-yl)oxy)ethoxy)benzyl)phenyl)amino)pyridazine-3-carboxylic Acid sodium Salt]	> 60
CC(C)(C)OC(=O)N1CCC(CCOc2ccc(Cc3ccc(Nc4ccnnc4C(=O)O)cc3)cc2)CC1 [Compound 70, 4-((4-(4-(2-(1-(tert-Butoxycarbonyl)piperidin-4-yl)ethoxy)benzyl)phenyl)amino)pyridazine-3-carboxylic Acid]	> 60
CC(C)(C)OC(=O)N1CCN(CCOc2ccc(Cc3ccc(Nc4ccnnc4C(=O)O)cc3)cc2)CC1 [Compound 72 Na salt, 4-((4-(4-(2-(4-(tert-Butoxycarbonyl)piperazin-1-yl)ethoxy)-benzyl)phenyl)amino)pyridazine-3-carboxylic Acid Sodium Salt]	> 60
CCCCCC(Sc1c(C(=O)O)noc1C)c1ccc(F)cc1 (stereo not shown) [Compound 75, 4-((1-(4-fluorophenyl)hexyl)thio)-5-methylisoxazole-3-carboxylic Acid]	30 to 60
CCCC/C=C(/SC1=C(C(=O)O)NNC=C1)c1ccc(F)cc1 [Compound 78, (E)-4-((1-(4-Fluorophenyl)hex-1-en-1-yl)thio)-1,2-dihydropyridazine-3-carboxylic Acid]	< 30
CCCCCC(Sc1c(C(=O)O)n[nH]c1C)c1ccc(F)cc1 (stereo not shown) [Compound 79, 4-((1-(4-Fluorophenyl)hexyl)thio)-5-methyl-1H-pyrazole-3-carboxylic Acid]	> 60

Second part, the compound after the results:

inhibition at 100 µM [%]	Compound
< 30	O=C(O)c1nnccc1NCc1ccc(F)cc1 [Compound 50, sodium salt, 4-((4-Fluorobenzyl)amino)pyridazine-3-carboxylic Acid, sodium Salt]
< 30	Cc1onc(C(=O)O)c1SCc1ccccc1 [Compound 51, 4-(Benzylthio)-5-methylisoxazole-3-carboxylic Acid]
> 60	O=C(O)c1nnsc1Nc1cccc(-c2ccccn2)c1 [Compound 52, 5-((3-(pyridin-2-yl)phenyl)amino)-1,2,3-thiadiazole-4-carboxylic Acid Na Salt]
30 to 60	Cc1onc(C(=O)O)c1Nc1ccc(Oc2ccc(C#N)cc2)cc1 [Compound 53, 4-((4-(4-cyanophenoxy)phenyl)amino)-5-methylisoxazole-3-carboxylic Acid]
< 30	Cc1onc(C(=O)O)c1Nc1ccc(Cc2ccc(F)cc2)cc1 [Compound 54, 4-((4-(4-fluorobenzyl)phenyl)amino)-5-methylisoxazole-3-carboxylic Acid]
30 to 60	Cc1onc(C(=O)O)c1Nc1ccc(CCc2ccc(F)cc2)cc1 [Compound 56, 4-((4-(4-fluorophenethyl)phenyl)amino)-5-methylisoxazole-3-carboxylic Acid]
< 30	Cc1[nH]nc(C(=O)O)c1Nc1ccc(Cc2ccc(OCCOC3CNC3)cc2)cc1 [Compound 60, 4-((4-(4-(2-(azetidin-3-yloxy)ethoxy)benzyl)phenyl)amino)-5-methyl-1H-pyrazole-3-carboxylic Acid hydrochloride]
< 30	Cc1[nH]nc(C(=O)O)c1Nc1ccc(CCc2ccc(F)cc2)cc1 [Compound 66, 4-((4-(4-Fluorophenethyl)phenyl)amino)-3-methyl-1H-pyrazole-5-carboxylic Acid]
30 to 60	O=C(O)c1nnccc1Nc1ccc(Cc2ccc(OCCC3CCNCC3)cc2)cc1 [Compound 71, 4-((4-(4-(2-(Piperidin-4-yl)ethoxy)benzyl)phenyl)amino)-pyridazine-3-carboxylic Acid hydrochloride]
< 30	O=C(O)c1nnccc1SCc1ccccc1 [Compound 76, 4-(Benzylthio)pyridazine-3-carboxylic Acid]
30 to 60	CCCCCC(Sc1ccnnc1C(=O)O)c1ccc(F)cc1 (stereo not shown) [Compound 77, 4-((1-(4-Fluorophenyl)hexyl)thio)pyridazine-3-carboxylic Acid]
